In patent US20230097992A1, “BIVALENT EGF FUSION TOXINS” (The Regents of the University of Colorado, a body corporate, priority 2020, published 2023):
“Also recorded” adds a separate entry of the source.

Key:
[1] = test system: HNSCC Cal27 tongue-orthotopic tumors; assay: Tongue-orthotopic tumor-bearing NSG mouse model; type: in vivo, NSG mice; details: for Median survival time: Tongue orthotopic model, fusion toxin or DT390 50 μg/kg IP, erlotinib 20 mg/kg gavage, once daily for 10 days from day 4; for tongue SCC tumor volume versus mono-EGF-IT and DT390 groups: second cohort, euthanized 8 days after tumor cell inoculation
Protocol: FIGS. 7A-7C presents the data from two animal studies of in vivo efficacy analysis of the human EGF fusion toxins against tongue squamous cell carcinomas (SCCs) in NSG mice. FIG. 7A presents the data from in vivo efficacy analysis of the human EGF fusion toxins using human EGFR-positive HNSCC Cal27 tongue-orthotopic tumor-bearing NSG mouse model. Eight million human EGFR-positive HNSCC Cal27 cells were injected into the tongue on day 0. Mice were injected intraperitoneally (IP) with the EGF fusion toxin or DT390 at 50 μg/kg, starting on day 4, once daily for 10 consecutive days. […] The schedule of the fusion toxin and tumor cell injection is pictured in the schematic below the survival curve. The vertical arrows indicate the days on which the tumor cells or the fusion toxins were injected. *P<0.05; **P<0.01; ***P<0.001; ****P<0.0001; ns: not significant.
FIG. 7B presents the data from a further in vivo efficacy analysis of the human EGF fusion toxins. […] The mice were euthanized on day 8 after tumor cell injection when the first mouse in the DT390 group reached the end point. The photograph depicts tongue squamous cell carcinomas (SCCs) (circled by the black dotted lines). Scale bar: 1 cm. FIG. 7C presents the FIG. 7B tumor volume comparison of the treatment groups. *P<0.05; **P<0.01
(§1) HNSCC tumor cells were injected via the following routes: 1) Flank-xenograft solid tumor model: eight million human HNSCC Cal27 tumor cells were subcutaneously injected into the right flank at day 0. The tumor-bearing mice were randomly divided into the four experimental groups when the tumors were palpable at day 3. The tumor volume was measured using digital vernier calipers every 3 days and calculated according to the formula: volume (mm^3)=(length×width×width)/2. 2) Tongue-orthotopic solid tumor model: eight million human HNSCC Cal27 tumor cells in 50 μl DMEM were injected into the tongue at day 0 following isoflurane anesthesia and the tumor-bearing mice were randomly divided into the planned four experimental groups at day 3. 3) Experimental metastasis model: one million human HNSCC Cal27 tumor cells in 200 μl DMEM were intravenously injected at day 0 via tail vein and the tumor-bearing mice were randomly divided into the four experimental groups at day 3.
(§2) Mono-EGF-IT (mEGF-IT), bEGF-IT, or DT390 was intraperitoneally injected (IP) starting at day 4 at 50 μg/kg, once daily for 10 consecutive days. […] The injected animals were observed daily for signs and symptoms of illness and scored at least twice weekly based on the parameters as previously reported (Peraino et al. (2013), J. Immunol. Methods 398-399, 33-43, which is hereby incorporated by reference in its entirety; Wang et al., 2015). The animals were humanely euthanized when the score exceeded the limit or the animal lost more than 15% of its pre-injection body weight. In addition, to assess whether the fusion toxins are toxic to the animals, NSG mice injected with the fusion toxins only were also included as control.
To assess the in vivo efficacy of the human EGF fusion toxins to the xenograft tumors in the head and neck area, a tongue-orthotopic tumor-bearing NSG mouse model was used as a second efficacy model. Eight million HNSCC Cal27 cells were injected into the tongue at day 0. The EGF fusion toxins were injected intraperitoneally (IP) starting on day 4 at 50 μg/kg daily for 10 consecutive days. Since the resulting tongue-orthotopic tumors severely affected the animal's eating and drinking, animals were euthanized earlier. Therefore, the median survival prolongation was not as impressive as that observed in the flank-xenograft solid tumor-bearing NSG mouse model. […] To further characterize the effect of the EGF fusion toxins on tumor volume, the orthotopic tongue SCC model study was repeated, and the mice were euthanized 8 days after tumor cell inoculation.

[2] = test system: HNSCC Cal27 cells injected intravenously (lung metastases); assay: Experimental lung metastasis NSG mouse model; type: in vivo, NSG mice; details: for Median survival time: Lung metastasis model, fusion toxin or DT390 50 μg/kg IP, erlotinib 20 mg/kg gavage, once daily for 10 days from day 4; for number of metastases in the lungs: second cohort, euthanized 10 days after tumor cell inoculation
Protocol: FIG. 8A-C presents data from in vivo efficacy analysis of the human EGF fusion toxins using an experimental lung metastasis NSG mouse model. FIG. 8A presents data from a first animal study for survival curve analysis. NSG mice were IV injected with one million human EGFR^+ HNSCC Cal27 cells on day 0. Mice were injected intraperitoneally (IP) with the EGF fusion toxin or DT390 at 50 μg/kg, once daily for 10 consecutive days starting on day 4 after the tumor cell injection. […] The schedule of the fusion toxin and tumor cell injection is pictured in the schematic below the survival curve. The vertical arrows indicate the days on which the tumor cells or the fusion toxins were injected. *P<0.05; **P<0.01; ***P<0.001; ****P<0.0001. The P-values for the survival curves were calculated using the Mantel-Cox log-rank test (GraphPad Prism9.0).
FIGS. 8B and C present data from a second animal study for a pathology analysis. […] The mice were euthanized on day 10 after tumor cell injection when the first mouse in the DT390 group reached the end point. FIG. 8B presents H&E pictures of lung metastases. Metastases are indicated in the upper panels by black arrowheads. Scale bar: 500 μm. The lower panels are higher magnification pictures of the area in black rectangles in the upper panels. […] Error bars indicate standard deviation (SD).
as §1, §2
The third in vivo efficacy model was an experimental metastasis model. One million of HNSCC Cal27 tumor cells were intravenously injected via the tail vein of NSG mice at day 0. The EGF fusion toxins were injected intraperitoneally (IP) starting on day 4 at 50 μg/kg daily for 10 consecutive days. […] To further assess the effects of the fusion toxins on metastasis, the experimental metastasis study was repeated with a second cohort of NSG mice, and all mice were euthanized 10 days after tumor cell inoculation, when the first mouse in the DT390 group reached the end point. The data are depicted in FIGS. 8B and C.

Compound | Median survival time [1] [days] | tongue SCC tumor volume versus mono-EGF-IT and DT390 groups [1] | Median survival time [2] [days] | number of metastases in the lungs [2]
Bi-EGF IT: DT390 joined by G4S to two human EGF domains linked by (G4S)3, C-terminal 6×His tag; SEQ ID NO: 10 | 15 | significantly smaller | 38 | reduced compared with the DT390-negative control group; also recorded: reduction was greater in the bi-EGF-IT group than in the mono-EGF-IT group
C#Cc1cccc(Nc2ncnc3cc(OCCOC)c(OCCOC)cc23)c1 [Erlotinib] | 16.5 | significantly smaller | 30 | reduced compared with the DT390-negative control group
